Test: Metabolic stability in human liver microsomes at […] in presence of NADPH assessed as intrinsic clearance
Assay type: ADME, Microsome
Conditions: read-out: CLH

## CC(C)[C@H](Nc1cc(-c2ccc3ccn(C)c3c2)c2nccnc2c1)c1cccnc1
  microsomal CLint: 85 µL/min/mg

Reference: ChEMBL document CHEMBL5050831, “Substituted quinoxaline derivatives as inhibitors of pfkfb” (2019)
